The values that follow are results of earlier work, collected in article PMC12495087 (ESMO Open, 2025).

Where two headings read alike, the source gives them in different places.

Data set [1] concerns RET-fusion-positive NSCLC. Conditions: cited from earlier work.
Data set [2] relates to RET-fusion-positive solid tumors including RET-mutant MTC. Conditions: cited from earlier work.
The conditions of data set [3]: cited from earlier work.
[4] abbreviates: advanced RET-rearranged lung adenocarcinomas.
Setting [5] is: previously treated RET-fusion-positive solid tumors including RET-mutant MTC, 160 mg twice daily.
Setting [6] is: previously treated RET-fusion-positive NSCLC, selpercatinib 160 mg twice daily, pralsetinib 400 mg once daily.
Where [7] appears, read: patients with MTC harboring RET-M918T.

Consider `COc1cc2nccc(Oc3ccc(NC(=O)C4(C(=O)Nc5ccc(F)cc5)CC4)cc3)c2cc1OC` [cabozantinib], for which, in data set [1] (setting [4]), the ORR is 28% and the mPFS is recorded as 5.5 months.

For `COc1ccc(CN2C3CC2CN(c2ccc(-c4cc(OCC(C)(C)O)cn5ncc(C#N)c45)cn2)C3)cn1` [selpercatinib], the “1-year PFS” value in data set [2] (setting [5]) was 82%. The mPFS in data set [2] (setting [5]) was 13.2 months; in data set [1] (previously treated RET-fusion-positive NSCLC, 160 mg twice daily) it was 16.5 months. In data set [3], the “grade ≥3 hypertension” value is “around 20%”. Further, the ORR in data set [1] (setting [6]) is recorded as 64%.

Turning to `COc1cc2nccc(Oc3ccc(NC(=O)NC4CC4)c(Cl)c3)c2cc1C(N)=O` [lenvatinib], in data set [2] (setting [7]), the ORR is 16% and the mPFS is 7.3 months.

Take `CO[C@]1(C(=O)N[C@@H](C)c2ccc(-n3cc(F)cn3)nc2)CC[C@H](c2nc(C)cc(Nc3cc(C)[nH]n3)n2)CC1` [pralsetinib]: in data set [3], the “grade ≥3 hypertension” value is reported as ~18%. Moreover, in data set [1] (setting [6]), the ORR was 61%.
